This assay concerns the target T1, human Oxytocin (OTR) receptor (Homo sapiens, UniProt P30559).
T1 construct: expressed in transfected cells
T1 sequence (P30559 1-389): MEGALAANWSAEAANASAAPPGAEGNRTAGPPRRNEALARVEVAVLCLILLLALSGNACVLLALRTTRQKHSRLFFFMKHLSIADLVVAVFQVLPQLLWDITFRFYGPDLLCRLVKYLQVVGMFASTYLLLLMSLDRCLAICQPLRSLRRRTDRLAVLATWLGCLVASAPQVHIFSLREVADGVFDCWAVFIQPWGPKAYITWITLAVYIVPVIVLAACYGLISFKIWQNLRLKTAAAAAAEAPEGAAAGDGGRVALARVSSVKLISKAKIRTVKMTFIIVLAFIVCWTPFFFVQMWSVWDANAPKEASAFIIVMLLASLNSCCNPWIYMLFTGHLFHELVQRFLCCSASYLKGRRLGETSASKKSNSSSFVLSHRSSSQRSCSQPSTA
The assay is described as follows: Calcium flux assay (FLIPR) in CHO cells expressing human OTR. The note with it: for Emax: CHO, maximum response normalized to endogenous full agonist = 100%, read-out: hOT efficacy; for EC50: agonist mode, CHO cells, calcium flux FLIPR, read-out: hOT EC50. The assay is classed as cell-based. The text has this:
Chines Hamster Ovary (CHO) cells were transfected with expression plasmids encoding either the human Vla, the human Oxytocin (OTR) or the humanV2 receptor, the later in combination with the chimeric Gqs5 G protein to redirect the signal to Calcium flux. Stable cells were cloned by limiting dilution to yield monoclonal cell lines expressing either human Vla, human V2+Gqs5 or human OTR receptors and selected based on functional responses detected on a fluorometric imaging plate reader (FLIPR) detecting Calcium flux in the cell after receptor activation. The stable cell lines were grown in F-12 K Nutrient Mixture (Kaighns Modification), containing 10% foetal bovine serum (FBS), 1% penicillin-streptomycin, 1% L-glutamate, 200 ug/ml Geneticin at 37° C. in a 10% CO2 incubator at 95% humidity.
Calcium Flux Assays Using Fluorescent Imaging (Fluorometric Imaging Plate Reader, FLIPR)
On the afternoon before the assay, cells were plated at a density of 50,000 cells/well into black 96 well plates with clear bottoms to allow cell inspection and fluorescence measurements from the bottom of each well. The density of cells was sufficient to yield a confluent monolayer the next day. Hanks balanced salt solution, without phenol red, containing 20 mM HEPES (pH 7.3) and 2.5 mM probenecid (assay buffer) was prepared fresh for each experiment. Compound dilutions were made using a Beckman Biomek 2000 laboratory automation workstation, in assay buffer containing 1% DMSO. The dye-loading buffer consisted of a final concentration of 2 μM Fluo-4-AM (dissolved in DMSO and pluronic acid) in assay buffer. The existing culture media was removed from the wells and 100 μl of the dye-loading buffer was added to each well and incubated for approximately 60 min at 37° C. in a 5% CO2 incubator at 95% humidity. Once dye-loaded, the cells were washed thoroughly on an Embla cell washer with the assay buffer to remove any unincorporated dye. Exactly 100 μl assay buffer was left in each well.
Each 96 well plate containing dye-loaded cells was placed into the FLIPR machine and the laser intensity set to a suitable level to detect low basal fluorescence. To test compounds as agonists, 25 μl diluted compound was added to the plate 10 seconds into the fluorescent measurements and fluorescent response was recorded for 5 minutes. The fluorescence data was normalized to the endogenous full agonist dose-response set at 100% for the maximum response and 0% for the minimum. Each agonist concentration-response curve was constructed using a four parameter logistic equation with Microsoft Excel XLFit as follows: Y=Minimum+((Maximum−Minimum)/(1+10^(LogEC50−X)nH)), where y is the % normalized fluorescence, minimum is the minimum y, maximum is the maximum y, log EC50 is the log10 concentration which produces 50% of the maximum induced fluorescence, x is the log10 of the concentration of the agonist compound and H is the slope of the curve (the Hill Coefficient). The maximum value gives the efficacy of the agonist test compound in percentage. The concentration of agonist that produced a half-maximal response is represented by the EC50 value, the logarithm of which yielded the pEC50 value.
A general note: Calcium assays in cells follow changes in intracellular calcium, usually with a dye or a luminescent sensor.

The structures appear in SMILES notation. Where a SMILES comes first, the peptide text is derived from it.

This is an account of results in patent publication US20170081368A1, “PEPTIDES AS OXYTOCIN AGONISTS” (Hoffmann-La Roche Inc., priority 2014, published 2017).

As for `CC[C@H](C)[C@@H]1NC(=O)[C@H](Cc2ccc(O)cc2)NC(=O)CCS(=O)(=O)CC[C@@H](C(=O)N2CC(F)(F)C[C@H]2C(=O)N[C@@H](CC(C)C)C(=O)NCC(N)=O)NC(=O)[C@H](CC(N)=O)NC(=O)[C@H](CCC(N)=O)NC1=O` [Example 3] (HELM PEPTIDE1{Y.I.Q.N.[O=C([C@H](CCS(=O)(=O)CCC(=O)[*:3])N[*:1])[*:2]].[O=C([C@@H]1CC(F)(F)CN1[*:1])[*:2]].L.G.[am]}$PEPTIDE1,PEPTIDE1,1:R1-5:R3$$$V2.0), the Emax turned out to be 144% and the EC50 (as a rule, the concentration that produces a half-maximal response) amounted to 1.7 nM.
The matching figures for `CC[C@H](C)[C@@H]1NC(=O)[C@H](Cc2ccc(O)cc2)NC(=O)CCS(=O)(=O)CC[C@@H](C(=O)N2CC[C@H]2C(=O)N[C@@H](CC(C)C)C(=O)NCC(N)=O)NC(=O)[C@H](CC(N)=O)NC(=O)[C@H](CCC(N)=O)NC1=O` [Example 4] (HELM PEPTIDE1{Y.I.Q.N.[O=C([C@H](CCS(=O)(=O)CCC(=O)[*:3])N[*:1])[*:2]].[O=C([C@@H]1CCN1[*:1])[*:2]].L.G.[am]}$PEPTIDE1,PEPTIDE1,1:R1-5:R3$$$V2.0): 128% and 3 nM.
The matching figures for `CC[C@H](C)[C@@H]1NC(=O)[C@H](Cc2ccc(O)cc2)NC(=O)CCS(=O)(=O)CC[C@@H](C(=O)N2CCCC[C@H]2C(=O)N[C@@H](CC(C)C)C(=O)NCC(N)=O)NC(=O)[C@H](CC(N)=O)NC(=O)[C@H](CCC(N)=O)NC1=O` [Example 5] (HELM PEPTIDE1{Y.I.Q.N.[O=C([C@H](CCS(=O)(=O)CCC(=O)[*:3])N[*:1])[*:2]].[O=C([C@@H]1CCCCN1[*:1])[*:2]].L.G.[am]}$PEPTIDE1,PEPTIDE1,1:R1-5:R3$$$V2.0): 130% and 3.8 nM.
Regarding `CC[C@H](C)[C@@H]1NC(=O)[C@H](Cc2ccc(O)cc2)NC(=O)CCS(=O)(=O)CC[C@@H](C(=O)N2C[C@@H](F)C[C@H]2C(=O)N[C@@H](CC(C)C)C(=O)NCC(N)=O)NC(=O)[C@H](CC(N)=O)NC(=O)[C@H](CCC(N)=O)NC1=O` [Example 6] (HELM PEPTIDE1{Y.I.Q.N.[O=C([C@H](CCS(=O)(=O)CCC(=O)[*:3])N[*:1])[*:2]].[O=C([C@@H]1C[C@H](F)CN1[*:1])[*:2]].L.G.[am]}$PEPTIDE1,PEPTIDE1,1:R1-5:R3$$$V2.0; C-terminus assumed; bridges inferred), the Emax came out at 145%.
With `CC[C@H](C)[C@@H]1NC(=O)[C@H](Cc2ccc(O)cc2)NC(=O)CCS(=O)(=O)CC[C@@H](C(=O)N2C[C@@H](F)C[C@H]2C(=O)N[C@@H](CC(C)C)C(=O)NCC(N)=O)NC(=O)[C@H](CC(N)=O)NC(=O)[C@H](CCC(N)=O)NC1=O` [Example 7] (HELM PEPTIDE1{Y.I.Q.N.[O=C([C@H](CCS(=O)(=O)CCC(=O)[*:3])N[*:1])[*:2]].[O=C([C@@H]1C[C@H](F)CN1[*:1])[*:2]].L.G.[am]}$PEPTIDE1,PEPTIDE1,1:R1-5:R3$$$V2.0), the Emax was determined as 141% and the EC50 was 2.6 nM.
On the same counts, the results for `CC[C@H](C)[C@@H]1NC(=O)[C@H](Cc2ccc(O)cc2)NC(=O)CCS(=O)(=O)CC[C@@H](C(=O)N2C[C@H](O)C[C@H]2C(=O)N[C@@H](CC(C)C)C(=O)NCC(N)=O)NC(=O)[C@H](CC(N)=O)NC(=O)[C@H](CCC(N)=O)NC1=O` [Example 8] (HELM PEPTIDE1{Y.I.Q.N.[O=C([C@H](CCS(=O)(=O)CCC(=O)[*:3])N[*:1])[*:2]].[Hyp].L.G.[am]}$PEPTIDE1,PEPTIDE1,1:R1-5:R3$$$V2.0) are 129% and 0.8 nM.
Consider `CCCC[C@H](NC(=O)CN(C)C(=O)[C@@H]1CCS(=O)(=O)CCC(=O)N[C@@H](Cc2ccc(O)cc2)C(=O)N[C@@H]([C@@H](C)CC)C(=O)N[C@@H](CCC(N)=O)C(=O)N[C@@H](CC(N)=O)C(=O)N1)C(=O)NCC(N)=O` [Example 9] (HELM PEPTIDE1{Y.I.Q.N.[O=C([C@H](CCS(=O)(=O)CCC(=O)[*:3])N[*:1])[*:2]].[Sar].[Nle].G.[am]}$PEPTIDE1,PEPTIDE1,1:R1-5:R3$$$V2.0), for which the Emax was 104% and the EC50 was found to be 1 nM.
In the case of `CC[C@H](C)[C@@H]1NC(=O)[C@H](Cc2ccc(O)cc2)NC(=O)CCS(=O)(=O)CC[C@@H](C(=O)N(C)CC(=O)NC(C)(C)C(=O)NCC(N)=O)NC(=O)[C@H](CC(N)=O)NC(=O)[C@H](CCC(N)=O)NC1=O` [Example 10] (HELM PEPTIDE1{Y.I.Q.N.[O=C([C@H](CCS(=O)(=O)CCC(=O)[*:3])N[*:1])[*:2]].[Sar].[Aib].G.[am]}$PEPTIDE1,PEPTIDE1,1:R1-5:R3$$$V2.0; C-terminus assumed; bridges inferred), the Emax was found to be 100%.
Same read-out and setting: with `CC[C@H](C)[C@@H]1NC(=O)[C@H](Cc2ccc(O)cc2)NC(=O)CCS(=O)(=O)CC[C@@H](C(=O)N(C)CC(=O)N[C@@H](CC2CCCCC2)C(=O)NCC(N)=O)NC(=O)[C@H](CC(N)=O)NC(=O)[C@H](CCC(N)=O)NC1=O` [Example 11] (HELM PEPTIDE1{Y.I.Q.N.[O=C([C@H](CCS(=O)(=O)CCC(=O)[*:3])N[*:1])[*:2]].[Sar].[Cha].G.[am]}$PEPTIDE1,PEPTIDE1,1:R1-5:R3$$$V2.0; C-terminus assumed; bridges inferred) the figure was 115%.
On to `CC[C@H](C)[C@@H]1NC(=O)[C@H](Cc2ccc(O)cc2)NC(=O)CCS(=O)(=O)CC[C@@H](C(=O)N(C)CC(=O)N[C@H](C(=O)NCC(N)=O)C(C)C)NC(=O)[C@H](CC(N)=O)NC(=O)[C@H](CCC(N)=O)NC1=O` [Example 12] (HELM PEPTIDE1{Y.I.Q.N.[O=C([C@H](CCS(=O)(=O)CCC(=O)[*:3])N[*:1])[*:2]].[Sar].V.G.[am]}$PEPTIDE1,PEPTIDE1,1:R1-5:R3$$$V2.0), for which the Emax was 112% and the EC50 is 1.4 nM.
For `CC[C@H](C)[C@H](NC(=O)CN(C)C(=O)[C@@H]1CCS(=O)(=O)CCC(=O)N[C@@H](Cc2ccc(O)cc2)C(=O)N[C@@H]([C@@H](C)CC)C(=O)N[C@@H](CCC(N)=O)C(=O)N[C@@H](CC(N)=O)C(=O)N1)C(=O)NCC(N)=O` [Example 13] (HELM PEPTIDE1{Y.I.Q.N.[O=C([C@H](CCS(=O)(=O)CCC(=O)[*:3])N[*:1])[*:2]].[Sar].I.G.[am]}$PEPTIDE1,PEPTIDE1,1:R1-5:R3$$$V2.0; C-terminus assumed; bridges inferred), the Emax was 117%.
For `CCC[C@H](NC(=O)CN(C)C(=O)[C@@H]1CCS(=O)(=O)CCC(=O)N[C@@H](Cc2ccc(O)cc2)C(=O)N[C@@H]([C@@H](C)CC)C(=O)N[C@@H](CCC(N)=O)C(=O)N[C@@H](CC(N)=O)C(=O)N1)C(=O)NCC(N)=O` [Example 14] (HELM PEPTIDE1{Y.I.Q.N.[O=C([C@H](CCS(=O)(=O)CCC(=O)[*:3])N[*:1])[*:2]].[Sar].[Nva].G.[am]}$PEPTIDE1,PEPTIDE1,1:R1-5:R3$$$V2.0; C-terminus assumed; bridges inferred), the Emax came out at 117% and the EC50 is 0.7 nM.
On the same counts, the results for `CC[C@H](C)[C@@H]1NC(=O)[C@H](Cc2ccc(O)cc2)NC(=O)CCS(=O)(=O)CC[C@@H](C(=O)N(C)CC(=O)N[C@@H](CCC(C)C)C(=O)NCC(N)=O)NC(=O)[C@H](CC(N)=O)NC(=O)[C@H](CCC(N)=O)NC1=O` [Example 15] (HELM PEPTIDE1{Y.I.Q.N.[O=C([C@H](CCS(=O)(=O)CCC(=O)[*:3])N[*:1])[*:2]].[Sar].[CC(C)CC[C@H](N[*:1])C(=O)[*:2]].G.[am]}$PEPTIDE1,PEPTIDE1,1:R1-5:R3$$$V2.0) are 107% and 1 nM.
